From US20060275873A1, “Autoinducer compound to improve the productivity of natamycin streptomyces strains” (priority 2003, published 2006)
Entries after “also recorded” stand apart in the source; their conditions may differ.

Columns and labels:
[1] = test system: Streptomyces natalensis npi287; test: Inducer bioassay: induction of natamycin production in mutant npi287 on solid SPG medium, read as inhibition zone in a Candida utilis overlay; type: cell-based; settings: for inducing activity on natamycin production by npi287: bioassay, Streptomyces natalensis npi287
Experimental: Dose-response representation is obtained from measuring points at 0, 110, 166, 220, 333, 446 and 500 nM of IP factor. Y-axis: natamycin-induced inhibition zone diameter in Candida utilis overlays in cm (see Example 5); x-axis: concentration of IP factor in nM.
The biological activity of IP factor was determined by its ability to induce natamycin production by mutant strain Streptomyces natalensis npi287 in solid SPG medium. After allowing growth of Streptomyces natalensis npi287 for 2 days at 30° C., samples of culture broths […] or different fractions from IP factor purification were added to wells (7 mm diameter) in the agar layer. The plate was overlaid with a culture of Candida utilis and incubated for 24 h at 28° C. The increment of the diameter of the natamycin inhibition zone after induction of natamycin in strain npi287 was proportional to the amount of IP factor in the sample.
The availability of the pure IP factor made it possible to quantify its inducing effect using the standard inducer assay with the npi287 strain (FIG. 2). […] The IP factor increased two-fold the diameter of natamycin inhibition zone (to above 50 millimeters) at concentration of 350 nM and the assay was saturated at concentrations above 400 nM. A threshold level of IP factor of about 50 nM was always required to detect the induction of natamycin production.

[2] = test system: Streptomyces griseus HH1; settings: stated as well-known; cited from earlier work
[3] = Solvent extraction of clarified culture broth (partition between organic and aqueous phase); type: physicochemical
Experimental: The culture broth (15 liters) from Streptomyces natalensis wild type strain grown for 24 h in YED medium in a Braun Biostat C fermentor was concentrated 10-fold in a vacuum evaporator. The concentrated broth was clarified by precipitating the proteins with 6M HCl at pH 3.0 in the cold room. The clarified broth was adjusted to pH 7.0 with concentrated NaOH and extracted. […] Enough IP factor could be extracted by repeated extractions with ethyl acetate to allow a good purification. The organic phases were then collected and concentrated to dryness under vacuum and the resultant product was dissolved in 100 ml of 10% methanol (v/v) and applied to an active carbon column (30×3 cm) previously equilibrated with the same solvent (10% methanol, v/v). The retained compounds including the IP factor were fractionated by stepwise elution (flow 2 ml/min) with 50% methanol (v/v), 100% methanol, 10% ethyl acetate in methanol (v/v), 50% ethyl acetate in methanol (v/v), and pure ethyl acetate (100%). […] The IP factor-containing fraction was then concentrated, applied onto a Sephadex GIO column (2000×1 cm) and eluted with distilled water (flow 0.8 ml/min). This size exclusion chromatography yielded 40 ml of active fractions.

[4] = test system: Streptomyces natalensis (wild type and npi287 mutant); test: Stimulation of sporulation of Streptomyces natalensis; type: cell-based
[5] = test system: Streptomyces griseus HH1; test: Restoration of streptomycin production in the A factor negative strain; type: cell-based; settings: HPLC-pure IP factor, Streptomyces griseus HH1 mutant
Excerpt: In the examples given below, the following strains were used: The wild type Streptomyces natalensis ATCC 27448 was used as the parental strain to isolate different npi mutants. Streptomyces natalensis cultures were maintained in solid TBO sporulation medium (containing 20 g tomato paste per liter; 25 g oat meal per liter; and 25 g agar per liter) as described by Aparicio et al. (Chem. Biol. 7, 895-905, 2000). Candida utilis CECT 1061 (synonym Pichia jadinii) was used as test strain in the bioassay of the antifungal activity of natamycin. Cultures of Streptomyces griseus IFO 13350 (formerly described as Streptomyces bikiniensis IFO 13350) were used to produce A factor in YMPG medium (Horinouchi et al., J. Antibiot. 38, 636-641, 1985). Streptomyces griseus HH1 (an A factor negative strain) was used to quantify the A factor inducing activity.
The Streptomyces griseus 35570 A factor was purified by following its biological activity on the test strain Streptomyces griseus HH1, a mutant lacking streptomycin production due to its deficiency in A factor biosynthesis.

[6] = test system: Streptomyces natalensis ATCC 27448; test: Natamycin production in liquid cultures of the wild type strain with exogenous auto inducer; type: cell-based; settings: 300 nM
Excerpt: FIG. 3A: Cell dry weight (▪); y-axis: dry weight concentration in mg/ml; x-axis: time in hours. FIG. 3B: (▴) Control without IP factor addition; (O) with IP factor addition; y-axis: natamycin concentration in μg/ml; x-axis: time in hours.
FIG. 4A: Cell dry weight (♦); y-axis: dry weight concentration in mg/ml; x-axis: time in hours. FIG. 4B: (▪) Control without IP factor addition; (□) with IP factor addition; y-axis: natamycin concentration in μg/ml; x-axis: time in hours.
FIG. 5A: Cell dry weight (▴); y-axis: dry weight concentration in mg/ml; x-axis: time in hours. FIG. 5B: (▪) Control without IP factor addition; (□) with IP factor addition; y-axis: natamycin concentration in μg/ml; x-axis: time in hours.
Four different complex media were used for quantification of the IP factor concentration and its relationship to natamycin production. These include: NBG medium (OXOID) supplemented with glucose (5 g/l); YEME medium (yeast extract 3 g/l; peptone […]; malt extract 3 g/l and glucose 10 g/l); TSB medium (DIFCO) and YED medium (yeast extract 10 g/l; glucose 10 g/l). In addition two defined media were also used to quantify the inducer production: Streptomyces MM (Kieser et al. in “Practical Streptomyces Genetics”, John Innes Foundation, Norwich, UK, 2000) and Lechevalier defined medium (Martin and McDaniel, Eur. J. Appl. Microbiol. 3, 135-144, 1976).
The production of natamycin in liquid cultures was routinely quantified by spectrophotometric determination at 319 nm. A 0.5 ml aliquot of the culture was extracted with 5 ml of methanol and diluted with distilled water; the concentration of natamycin was quantified as described previously (Aparicio et al. (Chem. Biol. 7, 895-905, 2000)) using a pure sample of natamycin (Sigma Chem. Co) as standard.

| SMILES | inducing activity on natamycin production by npi287 [1] | stimulation of sporulation [2] | part remaining in the aqueous phase ([3]; ethyl acetate extraction at acidic, neutral or slightly basic (pH 7.5) pH) | part remaining in the aqueous phase ([3]; repeated extraction with chloroform) | stimulation of sporulation ([4]; npi287 mutant) | stimulation of sporulation ([4]; wild type Streptomyces natalensis) | restoration of streptomycin production [5] | diameter of natamycin inhibition zone ([1]; 350 nM IP factor) | fold increase of the diameter of natamycin inhibition zone ([1]; 350 nM IP factor) | threshold level required to detect induction of natamycin production ([1]; standard inducer assay) | IP factor concentration to which npi287 clearly responded ([1]; standard inducer assay, FIG. 2) [nM] | concentration above which the assay was saturated ([1]; standard inducer assay, FIG. 2) | upper concentration of linear response of antibiotic production ([1]; standard inducer assay, FIG. 2) | production of natamycin on addition of exogenous inducer ([6]; NBG medium, FIG. 4) | production of natamycin on addition of exogenous inducer ([6]; TSB medium, FIG. 3) | production of natamycin on addition of exogenous inducer ([6]; YEME medium, FIG. 5) |
| --- | --- | --- | --- | --- | --- | --- | --- | --- | --- | --- | --- | --- | --- | --- | --- | --- |
| CC(C)CCCCC(=O)[C@@H]1C(=O)OCC1CO (stereo partly drawn) [A factor, 2-(6′-methylheptanoyl)-3R-hydroxymethyl-4-butanolide, reference compound] | some inducing activity; also recorded: elicited natamycin production | stimulation of sporulation | – | – | – | – | – | – | – | – | – | – | – | – | – | – |
| NC(CO)(CO)C(N)(CO)CO [IP factor, 2,3-diamino-2,3-bis(hydroxymethyl)-1,4-butanediol] | strong inducing activity | – | significant proportion | about 80% | did not stimulate sporulation | did not stimulate sporulation | negative | above 50 millimeters | two-fold | about 50 nM | 100 | above 400 nM | up to 350 nM | stimulated | stimulated | stimulated |
